One test has as its target T1, TASK-2 (Mus musculus, UniProt F6V9U5).
T1 construct: expressed in transfected cells; host or cells: HEK-293
T1 sequence (F6V9U5 1-502): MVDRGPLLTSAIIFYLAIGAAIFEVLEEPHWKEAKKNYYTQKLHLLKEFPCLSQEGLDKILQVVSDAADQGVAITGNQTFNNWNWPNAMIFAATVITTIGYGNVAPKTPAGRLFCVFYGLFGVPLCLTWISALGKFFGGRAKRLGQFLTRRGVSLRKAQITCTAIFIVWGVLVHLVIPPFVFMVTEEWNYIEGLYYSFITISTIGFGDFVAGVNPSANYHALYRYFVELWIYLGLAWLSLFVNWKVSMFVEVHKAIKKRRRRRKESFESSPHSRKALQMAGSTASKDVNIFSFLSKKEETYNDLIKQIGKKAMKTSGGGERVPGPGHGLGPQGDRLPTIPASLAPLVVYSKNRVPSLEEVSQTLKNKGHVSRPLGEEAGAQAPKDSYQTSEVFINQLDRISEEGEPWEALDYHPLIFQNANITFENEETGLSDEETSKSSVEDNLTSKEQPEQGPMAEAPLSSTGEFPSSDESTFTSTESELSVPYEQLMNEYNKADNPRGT
The experiment in a line: Excised inside-out patch recording from HEK-293 cells over-expressing TASK-2. Type of test: biochemical. Conditions: 1 mM, inside-out patch.

For the next test, the system named is TASK-2-R438C. The experiment in a line: Excised inside-out patch recording, TASK-2-R438C mutant. Details: key to MTSET effect: ✓ under “MTSET effect” indicates a significant increase in current after treatment with the methanesulfonate reagent; — in all cases stands for no significant effect. Type of test: biochemical, Mus musculus. On the procedure:
Mus musculus TASK-2 (GenBank accession No. AF319542) plasmid was that obtained from mouse kidney. The cDNAs was subcloned into the pCR3.1 vector. Mutations were made by site-directed mutagenesis into the pCR3.1 vector as previously described[69] and confirmed by sequencing. HEK-293 cells were cultured in Dulbecco’s modified Eagle’s medium (DMEM) and F12 Ham’s medium at a 1:1 ratio and supplemented with 10% fetal calf serum at 37 °C in 5% CO2. For electrophysiological experiments, transient transfections were performed by electroporation, using CD8 cotransfection to identify effectively transfected cells. […] Experiments were performed 4–8 h after electroporation. In experiments with the voltage-sensitive phosphatase TASK-2 or its mutants were co-electroporated with a pCR3.1-DrVSP-IRES-CD8 vector.
Recordings in the inside-out isolated patch configuration were performed in the gap-free mode at −60 mV. The inside aspect of the patch was bathed with a solution containing in mM: 10 KCl, 10 Glucose, 1 MgCl2, 10 EGTA, 1 Na3ATP, 0.1 GTP, 6.8 g/100 ml Sucrose, 10 Hepes/Tris, pH 7.4. The pipette contained in mM: 140 KCl, 10 Glucose, 6.8 g/100 ml Sucrose, 10 Hepes/Tris pH 7.4. For isolated patches, borosilicate capillaries (Harvard Apparatus GC150F-10 1.5 ODx0.86 ID) were fire polished to 4–5 MΩ and covered in beeswax. Acquisition was at 10 kHz with filter at 3 kHz (4-pole Bessel) and analysis was done with Clampfit 9.0 (Axon Instruments, Foster City, CA, USA). Traces shown are prints from crude Clampfit screen shots and quantification was done using the average currents were calculated at intervals using Clampfit after baseline adjustment.
Fig. S7. Concentration ependence for the inhibition of TASK-2 mutant R438C by
intracellular neomycin. Recording were obtained from excised inside-out patches of
membrane taken from a HEK-293 cells over-expressing TASK-2-R438C. The patches were
held at -60 mV in the presence of 1 mM intracellular ATP. Neomycin was increased
stepwise from 5 to 500 µM in the solution bathing the intracellular aspect of the membrane. […]

The next test concerns the target T2, TASK-2-K254C (Mus musculus, UniProt F6V9U5, K254C).
T2 construct: expressed in transfected cells; host or cells: HEK-293
T2 sequence (F6V9U5 1-502 K254C): T1 sequence (F6V9U5 1-502) with K254C
As to the kind of experiment: Excised inside-out patch recording, TASK-2-K254C mutant. Format: biochemical. The arrangement: key to MTSET effect: ✓ under “MTSET effect” indicates a significant increase in current after treatment with the methanesulfonate reagent; — in all cases stands for no significant effect. On the procedure: Figure 6 Scanning of potential sites of interaction of TASK-2 with PI(4,5)P2 by cysteine mutagenesis of intracellular basic residues. (A) Schematic representation of TASK-2 topology showing the sequences of segments of the protein predicted to be intracellular or intracellular-facing. Basic residues are highlighted in red. (B) Recording from an excised inside-out patch of membrane taken from a HEK-293 cell over-expressing TASK-2. The patch was held at −60 mV in the presence of 1 mM ATP. At the intervals indicated by the boxes the intracellular aspect of the membrane was exposed to 300 μM Neomycin and then to 100 μM TPeA. At the end of the TPeA period the patch was additionally exposed to 1 mM MTSET as shown by the black box. (C and D) experiments as in (B), but with inside-out membrane patches obtained from cells expressing the mutants TASK-2-H327C and TASK-2-K297C respectively. In D the reducing agent DTT was also added at 2 mM. (E) Summary of experiments comparing the current before and after treatment with MTSET. […]
Recordings in the inside-out isolated patch configuration were performed in the gap-free mode at −60 mV. […] Traces shown are prints from crude Clampfit screen shots and quantification was done using the average currents were calculated at intervals using Clampfit after baseline adjustment.

[1] abbreviates: 1 mM, in the presence of TPeA, inside-out patch.

Each structure is given as a SMILES string. Residue numbers refer to the chain shown, from its start.

Turning to `C[N+](C)(C)CCSS(C)(=O)=O.[Cl-]` [MTSET, [2-(trimethylammonium)ethyl] methanethiosulfonate chloride], the “Effect of MTSET on WT TASK-2 channel activity” value at TASK-2 (brief intracellular exposure in the presence of TPeA) is “Neither WT nor H327C channel activity is affected”. In addition, on TASK-2 (without TPeA, 1 mM ATP, Fig. S4), the “Effect of MTSET on WT TASK-2 activity” value is listed as “markedly reduced”. Besides, the “Effect of MTSET on TASK-2-R438C activity” value in the test on TASK-2-R438C (setting [1]) was “not affected”. For the same compound, the MTSET effect entry is “—” with TASK-2-R438C (mutation R438C) and “✓” on TASK-2-K254C (mutation K254C). At TASK-2-K254C (setting [1]), the “Effect of MTSET on TASK-2-K254C activity” value was “significantly activated”.

(Values after paper PMC5371824, “Phosphatidylinositol (4,5)-bisphosphate dynamically regulates the K2P background K^+ channel TASK-2” (Scientific Reports, 2017).)
